According to patent US20250270209A1 (INTERLINE THERAPEUTICS, INC., priority 2022, published 2025):

Columns and labels:
LRRK2 wild type enzyme = LRRK2 wild type enzyme (Homo sapiens, UniProt Q5S007); experiment: Biochemical Assay: LRRK2 TR-FRET (LanthaScreen) kinase assay with LRRKtide substrate; conditions: LRRK2 Inhibition, Table 8
Summary of the method: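 Human wild-type LRRK2 (3 nM) preincubated 15 min with compound (11-point, 3-fold, top 10 μM), then reacted 120 min at 23 °C with 400 nM LRRKtide and 25 μM ATP, pH 8.0. Stopped with EDTA; Tb-anti-pLRRKtide TR-FRET read after 30 min.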

[1] = target: T1, wild type LRRK2 overexpressed in recombinant HEK-293T cells (Homo sapiens, UniProt Q5S007); experiment: pS935 LRRK2 Cell Assay (HTRF, phospho-LRRK2 Ser935); format: cell-based; conditions: LRRK2 Inhibition, Table 8, 2 hours compound incubation
T1 construct: host or cells: HEK293T (transient transfection with pCMV-LRRK2 WT plasmid)
T1 sequence (Q5S007 whole entry): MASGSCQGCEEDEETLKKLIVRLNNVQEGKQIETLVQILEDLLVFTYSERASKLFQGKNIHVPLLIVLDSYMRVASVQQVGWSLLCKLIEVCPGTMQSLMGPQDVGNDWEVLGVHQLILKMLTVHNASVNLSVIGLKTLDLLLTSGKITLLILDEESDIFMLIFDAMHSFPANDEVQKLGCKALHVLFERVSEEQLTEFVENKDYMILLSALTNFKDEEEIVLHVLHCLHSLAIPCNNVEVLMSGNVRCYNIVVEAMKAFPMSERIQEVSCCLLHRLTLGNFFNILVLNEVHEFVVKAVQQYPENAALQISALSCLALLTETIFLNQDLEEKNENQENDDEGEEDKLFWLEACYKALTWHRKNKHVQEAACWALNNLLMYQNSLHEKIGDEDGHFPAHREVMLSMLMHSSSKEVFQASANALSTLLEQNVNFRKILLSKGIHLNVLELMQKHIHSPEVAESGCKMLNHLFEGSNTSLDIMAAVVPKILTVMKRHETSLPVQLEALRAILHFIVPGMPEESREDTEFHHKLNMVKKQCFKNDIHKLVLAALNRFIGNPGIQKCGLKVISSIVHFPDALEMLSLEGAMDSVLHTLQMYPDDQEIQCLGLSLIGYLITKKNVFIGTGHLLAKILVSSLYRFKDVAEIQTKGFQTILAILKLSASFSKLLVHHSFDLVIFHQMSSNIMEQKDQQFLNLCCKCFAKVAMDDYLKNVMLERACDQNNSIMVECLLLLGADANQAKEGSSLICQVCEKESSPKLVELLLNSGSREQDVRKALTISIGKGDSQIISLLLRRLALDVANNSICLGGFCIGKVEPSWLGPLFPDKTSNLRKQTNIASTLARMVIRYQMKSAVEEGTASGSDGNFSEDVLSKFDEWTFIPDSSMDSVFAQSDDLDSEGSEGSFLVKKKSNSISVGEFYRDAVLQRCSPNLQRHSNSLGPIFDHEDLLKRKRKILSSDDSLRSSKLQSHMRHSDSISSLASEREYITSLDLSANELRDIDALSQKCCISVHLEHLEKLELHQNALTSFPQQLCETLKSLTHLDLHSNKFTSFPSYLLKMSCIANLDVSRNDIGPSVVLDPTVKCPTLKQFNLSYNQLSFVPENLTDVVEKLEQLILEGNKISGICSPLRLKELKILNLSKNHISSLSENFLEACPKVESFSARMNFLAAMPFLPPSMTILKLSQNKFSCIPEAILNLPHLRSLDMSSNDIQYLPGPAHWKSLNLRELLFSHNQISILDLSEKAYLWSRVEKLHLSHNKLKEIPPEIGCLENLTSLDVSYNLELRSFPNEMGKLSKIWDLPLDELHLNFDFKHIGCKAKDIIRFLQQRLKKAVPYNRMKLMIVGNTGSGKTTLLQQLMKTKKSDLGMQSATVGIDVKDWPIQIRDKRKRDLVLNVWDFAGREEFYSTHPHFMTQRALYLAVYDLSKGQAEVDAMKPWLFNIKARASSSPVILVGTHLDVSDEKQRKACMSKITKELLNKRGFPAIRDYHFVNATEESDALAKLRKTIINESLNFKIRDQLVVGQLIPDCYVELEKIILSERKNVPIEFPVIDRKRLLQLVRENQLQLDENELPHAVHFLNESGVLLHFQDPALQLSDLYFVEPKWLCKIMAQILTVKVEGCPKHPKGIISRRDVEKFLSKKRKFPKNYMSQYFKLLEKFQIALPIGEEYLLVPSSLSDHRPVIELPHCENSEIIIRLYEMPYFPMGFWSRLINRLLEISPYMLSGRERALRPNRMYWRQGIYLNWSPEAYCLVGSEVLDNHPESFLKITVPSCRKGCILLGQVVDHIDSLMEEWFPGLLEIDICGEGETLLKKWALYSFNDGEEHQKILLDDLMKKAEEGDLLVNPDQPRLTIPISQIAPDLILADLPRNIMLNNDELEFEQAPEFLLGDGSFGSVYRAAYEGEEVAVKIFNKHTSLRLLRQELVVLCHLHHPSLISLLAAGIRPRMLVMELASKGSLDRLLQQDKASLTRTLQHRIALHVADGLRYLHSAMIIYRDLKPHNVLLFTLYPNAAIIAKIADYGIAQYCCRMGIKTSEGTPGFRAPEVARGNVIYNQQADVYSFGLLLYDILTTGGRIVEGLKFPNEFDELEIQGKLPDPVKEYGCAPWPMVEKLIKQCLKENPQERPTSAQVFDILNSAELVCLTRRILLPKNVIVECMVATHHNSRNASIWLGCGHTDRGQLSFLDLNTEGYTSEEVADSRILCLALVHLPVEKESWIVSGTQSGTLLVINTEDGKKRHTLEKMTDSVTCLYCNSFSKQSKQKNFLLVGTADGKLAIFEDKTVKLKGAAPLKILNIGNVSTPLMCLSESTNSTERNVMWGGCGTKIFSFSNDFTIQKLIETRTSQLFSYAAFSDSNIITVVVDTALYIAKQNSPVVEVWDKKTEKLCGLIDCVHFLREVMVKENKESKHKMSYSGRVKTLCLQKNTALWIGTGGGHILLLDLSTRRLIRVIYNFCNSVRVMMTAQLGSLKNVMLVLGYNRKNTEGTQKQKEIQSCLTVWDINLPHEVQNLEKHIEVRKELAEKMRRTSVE
Summary of the method: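 HEK-293T cells transiently transfected with wild-type LRRK2 for 24 h, plated overnight, then treated 2 h at 37° C with compound (top 10 μM, 3-fold, 9 doses, duplicates, 0.2% DMSO). Lysates probed overnight at 23° C by sandwich HTRF for pSer935; 665/615 nm ratio read.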

LRRK2 wild type enzyme, sequence (Q5S007 whole entry): as above

Question: With COc1nccnc1NC(=O)Cc1nc2cnc3ccc(C#N)cc3c2n1[C@@H]1CCO[C@H](C)C1 [Compound 312, N-(3-methoxy-2-pyrazinyl){3-[(2R,4R)-2-methyltetrahydro-2H-pyran-4-yl]-12-cyano-3,5,8-triazatricyclo[7.4.0.0^2,6]trideca-1(9),2(6),4,7,10,12-hexaen-4-yl}acetamide] as the compound, how does the IC50 (LRRK2 wild type enzyme) read?
Answer: 0.574 nM

Question: And the IC50 [1]?
Answer: 5.68 nM

Question: With COc1ncnc(C)c1NC(=O)Cc1nc2cnc3ccc(C#N)cc3c2n1[C@@H]1CCO[C@H](C)C1 [Compound 204, N-(4-methoxy-6-methyl-5-pyrimidinyl){3-[(2R,4R)-2-methyltetrahydro-2H-pyran-4-yl]-12-cyano-3,5,8-triazatricyclo[7.4.0.0^2,6]trideca-1,4,6,8,10,12-hexaen-4-yl}acetamide] as the compound, how does the IC50 (LRRK2 wild type enzyme) read?
Answer: 0.466 nM

Question: And the IC50 [1]?
Answer: 6.64 nM

Question: What does the source list for C[C@@H]1C[C@H](n2c(C3CC(=O)N([C@@H]4CCCOC4)C3)nc3cnc4ccc(C#N)cc4c32)CCO1 (stereo partly drawn) [Compound 51, 1-[(2R,4R)-2-methyloxan-4-yl]-2-{1-[(3R)-oxan-3-yl]-5-oxopyrrolidin-3-yl}-1H-imidazo[4,5-c]quinoline-8-carbonitrile]?
Answer: IC50 (LRRK2 wild type enzyme): 3.03 nM; IC50 [1]: 312 nM

Question: Which IC50 (LRRK2 wild type enzyme) does the source give for C[C@@H]1C[C@H](n2c(CC(=O)NC3(C)CCC3)nc3cnc4ccc(C#N)cc4c32)CCO1 [Compound 303, N-1-methylcyclobutyl{3-[(2R,4R)-2-methyltetrahydro-2H-pyran-4-yl]-12-cyano-3,5,8-triazatricyclo[7.4.0.0^2,6]trideca-1(13),2(6),4,7,9,11-hexaen-4-yl}acetamide] here?
Answer: 1.29 nM

Question: And the IC50 [1]?
Answer: 47 nM

Question: For C[C@@H]1C[C@H](n2c(C3CCN(S(C)(=O)=O)CC3)nc3cnc4ccc(C#N)cc4c32)CCO1 [Compound 122, 2-(1-methanesulfonylpiperidin-4-yl)-1-[(2R,4R)-2-methyloxan-4-yl]-1H-imidazo[4,5-c]quinoline-8-carbonitrile], which IC50 (LRRK2 wild type enzyme) is on record?
Answer: 2.99 nM

Question: And the IC50 [1]?
Answer: 546 nM

Question: Which IC50 (LRRK2 wild type enzyme) does the source give for C[C@@H]1C[C@H](n2c(CC(=O)Nc3cnn(C4COC4)c3)nc3cnc4ccc(C#N)cc4c32)CCO1 [Compound 304, N-[1-(3-oxetanyl)-4-pyrazolyl]{3-[(2R,4R)-2-methyltetrahydro-2H-pyran-4-yl]-12-cyano-3,5,8-triazatricyclo[7.4.0.0^2,6]trideca-1(13),2(6),4,7,9,11-hexaen-4-yl}acetamide] here?
Answer: 0.733 nM

Question: And the IC50 [1]?
Answer: 107 nM

Question: With C[C@@H]1C[C@H](n2c(CC(=O)NC3(CF)CC3)nc3cnc4ccc(C#N)cc4c32)CCO1 [Compound 294, N-1-(fluoromethyl)cyclopropyl{3-[(2R,4R)-2-methyltetrahydro-2H-pyran-4-yl]-12-cyano-3,5,8-triazatricyclo[7.4.0.0^2,6]trideca-1,4,6,8,10,12-hexaen-4-yl}acetamide] as the compound, how does the IC50 (LRRK2 wild type enzyme) read?
Answer: 1.48 nM

Question: What about the IC50 [1] of the same compound?
Answer: 132 nM

Question: With COc1ccc(NC(=O)Cc2nc3cnc4ccc(C#N)cc4c3n2[C@@H]2CCO[C@H](C)C2)cn1 [Compound 298, N-(6-methoxy-3-pyridyl){3-[(2R,4R)-2-methyltetrahydro-2H-pyran-4-yl]-12-cyano-3,5,8-triazatricyclo[7.4.0.0^2,6]trideca-1,4,6,8,10,12-hexaen-4-yl}acetamide] as the compound, how does the IC50 (LRRK2 wild type enzyme) read?
Answer: 0.346 nM

Question: And the IC50 [1]?
Answer: 5.52 nM

Question: What does the source list for Cc1ccc(NC(=O)Cc2nc3cnc4ccc(C#N)cc4c3n2[C@@H]2CCO[C@H](C)C2)cn1 [Compound 319, N-(6-methyl-3-pyridyl){3-[(2R,4R)-2-methyltetrahydro-2H-pyran-4-yl]-12-cyano-3,5,8-triazatricyclo[7.4.0.0^2,6]trideca-1(9),2(6),4,7,10,12-hexaen-4-yl}acetamide]?
Answer: IC50 (LRRK2 wild type enzyme): 0.542 nM; IC50 [1]: 5.93 nM

Question: Which results are given for C[C@@H]1C[C@H](n2c(CC(=O)Nc3cccnc3Cl)nc3cnc4ccc(C#N)cc4c32)CCO1 [Compound 324, N-(2-chloro-3-pyridyl){3-[(2R,4R)-2-methyltetrahydro-2H-pyran-4-yl]-12-cyano-3,5,8-triazatricyclo[7.4.0.0^2,6]trideca-1(9),2(6),4,7,10,12-hexaen-4-yl}acetamide]?
Answer: IC50 (LRRK2 wild type enzyme): 0.536 nM; IC50 [1]: 3.16 nM

Question: Cc1ccnc(C)c1NC(=O)Cc1nc2cnc3ccc(C#N)cc3c2n1[C@@H]1CCO[C@H](C)C1 [Compound 256, N-(2,4-dimethyl-3-pyridyl){3-[(2R,4R)-2-methyltetrahydro-2H-pyran-4-yl]-12-cyano-3,5,8-triazatricyclo[7.4.0.0^2,6]trideca-1,4,6,8,10,12-hexaen-4-yl}acetamide] was tested. Which IC50 (LRRK2 wild type enzyme) did it give?
Answer: 0.485 nM

Question: And the IC50 [1]?
Answer: 15.1 nM

Question: With C[C@@H]1C[C@H](n2c([C@@H]3CCN(S(C)(=O)=O)C3)nc3cnc4ccc(C#N)cc4c32)CCO1 [Compound 38, 2-[(3R)-1-methanesulfonylpyrrolidin-3-yl]-1-[(2R,4R)-2-methyloxan-4-yl]-1H-imidazo[4,5-c]quinoline-8-carbonitrile] as the compound, how does the IC50 (LRRK2 wild type enzyme) read?
Answer: 7.3 nM

Question: And the IC50 [1]?
Answer: 772 nM

Question: What does the source list for C[C@@H]1C[C@H](n2c(CC(=O)Nc3ccc(OC(F)F)nc3)nc3cnc4ccc(C#N)cc4c32)CCO1 [Compound 293, N-(6-difluoromethoxy-3-pyridyl){3-[(2R,4R)-2-methyltetrahydro-2H-pyran-4-yl]-12-cyano-3,5,8-triazatricyclo[7.4.0.0^2,6]trideca-1,4,6,8,10,12-hexaen-4-yl}acetamide]?
Answer: IC50 (LRRK2 wild type enzyme): 0.514 nM; IC50 [1]: 9.81 nM

Question: With C[C@@H]1C[C@H](n2c(CC(=O)Nc3ccn(C4CC4)n3)nc3cnc4ccc(C#N)cc4c32)CCO1 [Compound 354, N-(1-cyclopropyl-3-pyrazolyl){3-[(2R,4R)-2-methyltetrahydro-2H-pyran-4-yl]-12-cyano-3,5,8-triazatricyclo[7.4.0.0^2,6]trideca-1(9),2(6),4,7,10,12-hexaen-4-yl}acetamide] as the compound, how does the IC50 (LRRK2 wild type enzyme) read?
Answer: 0.447 nM

Question: What about the IC50 [1] of the same compound?
Answer: 14.8 nM

Question: For Cc1nn(C)c(C)c1NC(=O)Cc1nc2cnc3ccc(C#N)cc3c2n1[C@@H]1CCO[C@H](C)C1 [Compound 187, 2-{8-cyano-1-[(2R,4R)-2-methyloxan-4-yl]-1H-imidazo[4,5-c]quinolin-2-yl}-N-(1,3,5-trimethyl-1H-pyrazol-4-yl)acetamide], which IC50 (LRRK2 wild type enzyme) is on record?
Answer: 0.241 nM

Question: What about the IC50 [1] of the same compound?
Answer: 9.47 nM

Question: C[C@@H]1C[C@H](n2c(CC(=O)Nc3ccccn3)nc3cnc4ccc(C#N)cc4c32)CCO1 [Compound 155, 2-{8-cyano-1-[(2R,4R)-2-methyloxan-4-yl]-1H-imidazo[4,5-c]quinolin-2-yl}-N-(pyridin-2-yl)acetamide] was tested. Which IC50 (LRRK2 wild type enzyme) did it give?
Answer: 0.441 nM

Question: What about the IC50 [1] of the same compound?
Answer: 2.87 nM

Question: For C[C@@H]1C[C@H](n2c(CC(=O)NC[C@H]3CCOC3)nc3cnc4ccc(C#N)cc4c32)CCO1 [Compound 172, 2-{8-cyano-1-[(2R,4R)-2-methyloxan-4-yl]-1H-imidazo[4,5-c]quinolin-2-yl}-N-{[(3R)-oxolan-3-yl]methyl}acetamide], which IC50 (LRRK2 wild type enzyme) is on record?
Answer: 0.567 nM

Question: What about the IC50 [1] of the same compound?
Answer: 37.6 nM

Question: For C[C@@H]1C[C@H](n2c(CC(=O)Nc3cccnc3)nc3cnc4ccc(C#N)cc4c32)CCO1 [Compound 320, N-3-pyridyl{3-[(2R,4R)-2-methyltetrahydro-2H-pyran-4-yl]-12-cyano-3,5,8-triazatricyclo[7.4.0.0^2,6]trideca-1(9),2(6),4,7,10,12-hexaen-4-yl}acetamide], which IC50 (LRRK2 wild type enzyme) is on record?
Answer: 0.571 nM

Question: And the IC50 [1]?
Answer: 6.31 nM

Question: How did the IC50 (LRRK2 wild type enzyme) turn out when C[C@@H]1C[C@H](n2c(CC(=O)NCc3ccccn3)nc3cnc4ccc(C#N)cc4c32)CCO1 [Compound 86, 2-{8-cyano-1-[(2R,4R)-2-methyloxan-4-yl]-1H-imidazo[4,5-c]quinolin-2-yl}-N-[(pyridin-2-yl)methyl]acetamide] was run?
Answer: 0.422 nM

Question: What about the IC50 [1] of the same compound?
Answer: 7.12 nM

Question: Which results are given for COc1nc(C)ncc1NC(=O)Cc1nc2cnc3ccc(C#N)cc3c2n1[C@@H]1CCO[C@H](C)C1 [Compound 248, N-(4-methoxy-2-methyl-5-pyrimidinyl){3-[(2R,4R)-2-methyltetrahydro-2H-pyran-4-yl]-12-cyano-3,5,8-triazatricyclo[7.4.0.0^2,6]trideca-1(9),2(6),4,7,10,12-hexaen-4-yl}acetamide]?
Answer: IC50 (LRRK2 wild type enzyme): 0.4 nM; IC50 [1]: 4.2 nM

Question: How did the IC50 (LRRK2 wild type enzyme) turn out when C[C@@H]1C[C@H](n2c(CNS(C)(=O)=O)nc3cnc4ccc(C#N)cc4c32)CCO1 [Compound 21, N-({8-cyano-1-[(2R,4R)-2-methyloxan-4-yl]-1H-imidazo[4,5-c]quinolin-2-yl}methyl)methanesulfonamide] was run?
Answer: 5.18 nM

Question: What about the IC50 [1] of the same compound?
Answer: 641 nM

Question: For C[C@@H]1C[C@H](n2c(C3CC(=O)N(Cc4ccccn4)C3)nc3cnc4ccc(C#N)cc4c32)CCO1 (mixture of isomers) [Compound 61, 1-[(2R,4R)-2-methyloxan-4-yl]-2-{5-oxo-1-[(pyridin-2-yl)methyl]pyrrolidin-3-yl}-1H-imidazo[4,5-c]quinoline-8-carbonitrile], which IC50 (LRRK2 wild type enzyme) is on record?
Answer: 1.09 nM

Question: What about the IC50 [1] of the same compound?
Answer: 89.2 nM

Question: Which results are given for C[C@@H]1C[C@H](n2c(CC(=O)Nc3ccnnc3)nc3cnc4ccc(C#N)cc4c32)CCO1 [Compound 268, N-4-pyridazinyl{3-[(2R,4R)-2-methyltetrahydro-2H-pyran-4-yl]-12-cyano-3,5,8-triazatricyclo[7.4.0.0^2,6]trideca-1,4,6,8,10,12-hexaen-4-yl}acetamide]?
Answer: IC50 (LRRK2 wild type enzyme): 0.461 nM; IC50 [1]: 109 nM

Question: What does the source list for COCCCNC(=O)Cc1nc2cnc3ccc(C#N)cc3c2n1[C@@H]1CCO[C@H](C)C1 [Compound 166, 2-{8-cyano-1-[(2R,4R)-2-methyloxan-4-yl]-1H-imidazo[4,5-c]quinolin-2-yl}-N-(3-methoxypropyl)acetamide]?
Answer: IC50 (LRRK2 wild type enzyme): 0.364 nM; IC50 [1]: 12 nM

Question: With C[C@@H]1C[C@H](n2c(CC(=O)Nc3cccnn3)nc3cnc4ccc(C#N)cc4c32)CCO1 [Compound 168, 2-{8-cyano-1-[(2R,4R)-2-methyloxan-4-yl]-1H-imidazo[4,5-c]quinolin-2-yl}-N-(pyridazin-3-yl)acetamide] as the compound, how does the IC50 (LRRK2 wild type enzyme) read?
Answer: 0.375 nM

Question: What about the IC50 [1] of the same compound?
Answer: 8.76 nM
